The values that follow come from PMC8138939 (Clinical pharmacology and therapeutics, 2020).

The structures appear in SMILES notation. Like-named read-outs stand apart in the source and are kept apart here. Marks after values point to notes of the source that are not given here.

The nature of data set [1]: Adult sildenafil/DMS PBPK population simulations. Also noted: species or system human.
The conditions of data set [2]: with vs without ritonavir; day 8; cited from earlier work.
Data set [3] has as its target T1, CYP3A4 (Homo sapiens, UniProt P08684). The following applies: cited from earlier work.
Data set [4] concerns the target T2, CYP3A7 (Homo sapiens, UniProt P24462). The following applies: ref [18], cited from earlier work.
The conditions of data set [5]: ref [46]; cited from earlier work.
The conditions of data set [6]: cited from earlier work; for DMS AUC Observed / Sildenafil AUC Observed: geometric mean.
In data set [7] the target is T3, CYP3A5 (Homo sapiens, UniProt P20815). The following applies: cited from earlier work.
Data set [8] concerns plasma protein (AAG). Particulars: cited from earlier work; for fu, predominant plasma binding protein: AAG, ref [15],[16].
Data set [9] addresses T3, CYP3A5. The experiment in a line: Fluconazole inhibition of 6β-hydroxytestosterone formation, recombinant CYP3A5. Format: biochemical.
Data set [10] concerns the target T1, CYP3A4. The experiment in a line: Fluconazole inhibition of 6β-hydroxytestosterone formation, recombinant CYP3A4. Format: biochemical.
In data set [11] the target is T2, CYP3A7. Briefly: Fluconazole inhibition of 6β-hydroxytestosterone formation, recombinant CYP3A7. The data set is classed as biochemical.
Data set [12] relates to phosphodiesterase type 5. The following applies: ref [37], cited from earlier work.
For data set [13] the following is noted: adults with pulmonary arterial hypertension; ref [44]; cited from earlier work.
The conditions of data set [14]: PopPK, cited from earlier work.
The conditions of data set [15]: cited from earlier work; for sildenafil clearance (CL): 36 term neonates, i.v. sildenafil; for Sildenafil CL Observed / Sildenafil Vss Observed: PopPK typical value scaled to 70 kg.
In data set [16] the test system is CYP2C9. The following applies: DMS formation, ref [12], cited from earlier work.
The conditions of data set [17]: children 1 to 17 years; low dose 10 mg in children > 20 kg; ref [24]; cited from earlier work.
Data set [18] relates to CYP3A4/5/7. The following applies: read-out: KM CYP3A4/5/7 sink; remainder of sildenafil metabolites; fixed; ref [27]; cited from earlier work.

For orientation: pKa means the negative logarithm of the acid dissociation constant. By Ki is commonly meant a dissociation constant, usually derived from enzyme kinetics or from competition with a known ligand.

T3 sequence (P20815 whole entry): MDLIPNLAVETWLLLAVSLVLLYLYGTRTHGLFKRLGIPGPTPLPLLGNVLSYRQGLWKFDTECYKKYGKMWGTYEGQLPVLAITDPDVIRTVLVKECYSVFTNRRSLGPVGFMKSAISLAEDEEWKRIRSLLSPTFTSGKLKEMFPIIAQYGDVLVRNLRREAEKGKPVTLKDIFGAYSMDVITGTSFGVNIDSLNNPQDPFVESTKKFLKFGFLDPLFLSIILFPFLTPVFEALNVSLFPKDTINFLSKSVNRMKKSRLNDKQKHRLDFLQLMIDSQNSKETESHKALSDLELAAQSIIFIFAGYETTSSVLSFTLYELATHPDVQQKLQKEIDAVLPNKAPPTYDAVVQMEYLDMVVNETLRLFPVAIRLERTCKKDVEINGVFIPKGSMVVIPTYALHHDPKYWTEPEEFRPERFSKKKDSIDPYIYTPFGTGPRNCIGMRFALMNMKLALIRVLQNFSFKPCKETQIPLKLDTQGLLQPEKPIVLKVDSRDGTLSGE
T2 sequence (P24462 whole entry): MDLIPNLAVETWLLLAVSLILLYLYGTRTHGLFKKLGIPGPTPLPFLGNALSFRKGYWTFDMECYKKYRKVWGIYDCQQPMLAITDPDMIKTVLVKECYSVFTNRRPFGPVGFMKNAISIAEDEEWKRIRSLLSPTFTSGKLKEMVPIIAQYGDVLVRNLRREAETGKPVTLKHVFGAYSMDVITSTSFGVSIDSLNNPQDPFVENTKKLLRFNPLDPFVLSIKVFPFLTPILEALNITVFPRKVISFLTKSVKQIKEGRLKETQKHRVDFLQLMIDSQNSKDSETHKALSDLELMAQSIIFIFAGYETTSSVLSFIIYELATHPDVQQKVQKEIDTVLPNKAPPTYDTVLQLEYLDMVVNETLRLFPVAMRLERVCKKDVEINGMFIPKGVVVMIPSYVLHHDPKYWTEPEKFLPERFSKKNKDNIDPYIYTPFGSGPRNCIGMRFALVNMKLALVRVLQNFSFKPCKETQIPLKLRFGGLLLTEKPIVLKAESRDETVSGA
T1 sequence (P08684 2-503 limits assumed): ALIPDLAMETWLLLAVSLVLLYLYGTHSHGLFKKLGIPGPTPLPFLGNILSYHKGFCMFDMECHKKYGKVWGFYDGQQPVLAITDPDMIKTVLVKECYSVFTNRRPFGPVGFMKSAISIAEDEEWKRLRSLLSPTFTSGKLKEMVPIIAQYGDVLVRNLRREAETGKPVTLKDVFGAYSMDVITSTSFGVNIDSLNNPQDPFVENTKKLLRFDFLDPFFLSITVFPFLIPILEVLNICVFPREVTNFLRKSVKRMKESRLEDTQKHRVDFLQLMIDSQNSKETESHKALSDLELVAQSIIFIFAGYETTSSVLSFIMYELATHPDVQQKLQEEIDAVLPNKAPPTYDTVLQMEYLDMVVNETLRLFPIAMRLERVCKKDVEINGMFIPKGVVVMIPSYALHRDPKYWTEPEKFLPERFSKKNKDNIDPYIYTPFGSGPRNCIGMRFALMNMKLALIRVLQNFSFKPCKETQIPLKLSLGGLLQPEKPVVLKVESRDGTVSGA

Regarding `CCCc1nn(C)c2c(=O)[nH]c(-c3cc(S(=O)(=O)N4CCNCC4)ccc3OCC)nc12` [DMS, N-desmethylsildenafil], the “DMS AUC Ratio simulated/observed” value in [1] (25 mg sildenafil single oral dose) is 1.01; in data set [1] (50 mg sildenafil single oral dose), 0.94; in [1] (100 mg sildenafil single oral dose), 0.85; in data set [1] (200 mg sildenafil single oral dose), 0.79; in [1] (sildenafil 25 mg/25-minute infusion i.v.) it was 1.87. For the same molecule, in data set [2], the “DMS AUC0-24 Fold Change observed” value is listed as 1.7. Further, the “in vitro formation kinetic intrinsic clearance (CLint) for DMS” value in [3] (CYP3A4, ref [18]) is reported as 0.733 μL/min/pmol CYP3A; in [4] (CYP3A7), 0.079 μL/min/pmol CYP3A; in [7] (CYP3A5, ref [18]), 0.788 μL/min/pmol CYP3A. The Water solubility in data set [5] was 419 µg/mL. Besides, the pKa in data set [5] is 7.16. Further, the “DMS AUC Observed” value in [6] (25 mg sildenafil single oral dose, AUC0–∞, ref [47]) is 147 ng·h/mL; in data set [6] (50 mg sildenafil single oral dose, AUC0–∞, ref [47]), 328 ng·h/mL; in [6] (100 mg sildenafil single oral dose, AUC0–∞, ref [47]), 776 ng·h/mL; in data set [6] (200 mg sildenafil single oral dose, AUC0–∞, ref [47]), 1822 ng·h/mL; in data set [6] (sildenafil 25 mg/25-minute infusion i.v., AUC0–∞, ref [13]), 147 ng·h/mL. In [8], the “fu, predominant plasma binding protein” value was 0.04 (AAG).

As for `OC(Cn1cncn1)(Cn1cncn1)c1ccc(F)cc1F` [Fluconazole, fluconazole], the Ki is 70.8 µM in data set [9] (KI competitive, value (90% CI)) and 182 µM in data set [9] (KI global, net value of mixed model, value (90% CI), triplicates). Besides, the Alpha in [9] (mixed model, value (90% CI)) is given as 2.6 (0.5–13.9); in data set [10] (mixed model, value (90% CI)) it was 16.6 (6.1–178); in data set [11] (mixed model, value (90% CI)) it was 13.5 (1.8–∞). Further, the Inhibition type result is “mixed competitive inhibitor” in data set [9] (recombinant CYP3A5, testosterone probe); “mixed competitive inhibitor” in [10] (recombinant CYP3A4, testosterone probe); “mixed competitive inhibitor” in [11] (recombinant CYP3A7, testosterone probe). Also, the KI uncompetitive was 238.7 (183.2–318.9) μM in data set [9] (value (90% CI)), 83.1 (67.4–102.9) μM in [10] (value (90% CI)) and 389.0 (266.7–610.3) μM in data set [11] (value (90% CI)).

In the case of `CCCc1nn(C)c2c(=O)[nH]c(-c3cc(S(=O)(=O)N4CCN(C)CC4)ccc3OCC)nc12` [Sildenafil, sildenafil], the “unbound inhibition of in vitro phosphodiesterase type 5 activity” value in data set [12] (at steady-state Cmax 47 ng/mL) is on record as 53%; in [12] (at steady-state Cmax 140 ng/mL), 77%; in data set [12] (at steady-state Cmax 373 ng/mL), 90%. For the same molecule, the “concentration of half-maximal effect, pulmonary vascular resistance” value in data set [13] was 17 ng/mL. For the same molecule, the “concentration that produces the maximal effect, pulmonary vascular resistance” value in [13] is listed as “around 100 ng/mL”. For the same molecule, the “Vmax CYP3A4 DMS” value in [3] (DMS formation, ref [27]) was 1.00 pmol/min/pmol. For the same molecule, the Km in data set [3] (read-out: KM CYP3A4 DMS, DMS formation, ref [27]) was 15 µM; in data set [16] (read-out: KM CYP2C9 DMS), 27 µM; in data set [4] (read-out: KM CYP3A7 DMS, DMS formation), 5.71 µM; in data set [18], 15 µM; in data set [7] (read-out: KM CYP3A5 DMS, DMS formation, ref [27]), 14.7 µM. Also, the “decrease in sildenafil clearance by fluconazole” value in data set [14] (11 infants 2–121 days old, 3 with fluconazole, nasogastric tube, ref [20]) is listed as 47%. In data set [14] (34 preterm infants, 4 with fluconazole, ref [21]), the “decrease in sildenafil CL by fluconazole” value is listed as 59%. The “sildenafil clearance (CL)” value is 2.58 L/h in [15] (7 days of age, ref [19]) and 0.84 L/h in data set [15] (day 1, ref [19]). Further, the “Sildenafil CL Observed” value in data set [15] (Preterm infants, ref [21]) is listed as 27.8 (33.3%)^b,e liters/hour; in [15] (Term neonates, ref [19]), 24.7 (54.7%)^b,f liters/hour; in data set [6] (Healthy adults, PopPK, mean (inter-individual variability), ref [50]), 29.5 (31.2%)^d liters/hour; in data set [6] (Patients with PAH, 10 mg i.v. bolus, ref [49]) it was 32.2 (N/A)^c liters/hour. Also, the “Sildenafil Vss Observed” value in [15] (Preterm infants, ref [21]) is listed as 144 (N/A)^b,e liters; in data set [15] (Term neonates, ref [19]), 456 (N/A)^b,f liters; in data set [6] (Healthy adults, PopPK, ref [50]), 107 (N/A)^d liters; in [6] (Patients with PAH, reported as terminal phase volume (Vz), ref [49]), 137 (N/A)^c liters. The “Vss in full-term neonates, not scaled” value in data set [15] (full-term neonates, ref [20]) is on record as 22.4 L. The “Vmax CYP2C9 DMS” value in data set [16] is listed as 78 pmol/min/mg. In addition, the “efficacy of the low dose” value in [17] is reported as “ineffective”. For the same molecule, in [5], the pKa is 5.97. Besides, the “Sildenafil AUC Observed” value is 330 ng·h/mL in data set [6] (10 mg i.v. bolus, adults with pulmonary arterial hypertension, AUC0–τ (8 hours), ref [49]); 361 ng·h/mL in data set [6] (25 mg single oral dose, healthy men, AUC0–∞, ref [47]); 971 ng·h/mL in data set [6] (25 mg/25-minute infusion i.v., healthy adult men, AUC0–∞, ref [13]); 738 ng·h/mL in data set [6] (50 mg single oral dose, healthy men, AUC0–∞, ref [47]); 1291 ng·h/mL in data set [6] (50 mg/50-minute infusion i.v., healthy men, AUC0–∞, ref [47]); 1720 ng·h/mL in [6] (80 mg p.o. t.i.d. after 20 mg t.i.d. for 3 days, healthy men, AUC0–τ, ref [48]). The “Sildenafil AUC Observed” value in [6] (100 mg single oral dose, healthy men, AUC0–∞, ref [47]) was 1685 ng·h/mL; in data set [6] (200 mg single oral dose, healthy men, AUC0–∞, ref [47]), 3755 ng·h/mL. Further, the “fu, predominant plasma binding protein” value in [8] was 0.04 (AAG). For the same molecule, the “protein binding of sildenafil” value in data set [8] (infants, ref [20]) is listed as 93.9%.
